We go through 24 molecules from patent publication US9416115B2, “Fused heterocyclic compounds as ion channel modulators” (Gilead Sciences, Inc., priority 2013, dated 2016).

Where two headings read alike, the source gives them in different places.

In experiment [1] the target is T1, wild-type human cardiac sodium channel, hNav1.5 (Homo sapiens, UniProt Q14524). The experiment can be described thus: Late INa screening assay (QPatch whole cell patch clamp, Tefluthrin-induced late current). It is filed as cell-based. The settings on record: 1 uM; HEK293 hNav1.5; percent block of late INa. Here is the method:
(§1) The cardiac late sodium current (Late INa) and peak sodium current (Peak INa) assays are performed on an automated electrophysiology platform, QPatch 16X or QPatch HT (Sophion Bioscience, Copenhagen, Denmark) using the whole cell patch clamp technique to measure currents through the cell membrane. The assay uses an HEK293 (human embryonic kidney) cell line heterologously expressing the wild-type human cardiac sodium channel, hNav1.5, purchased from Millipore (Billerica, Mass.). No beta subunits were coexpressed with the Na channel alpha subunit. Cells are maintained with standard tissue culture procedures and stable channel expression is maintained with 400 μg/mL Geneticin in the culture medium. Experiments are carried out at 23-25° C.
(§2) For both the Late INa and Peak INa assays, series resistance compensation is set to 100% and series resistance and whole-cell compensation are performed automatically. Currents are digitized at 25 kHz and low-pass filtered at 5 kHz and stored in the Sophion Bioscience Oracle database (Sophion Bioscience, Copenhagen, Denmark). Analysis is performed using QPatch Assay software and data are compiled in Excel 2010 (Microsoft, Seattle, Wash., U.S.A.).
(§3) Compound stocks are routinely made by the Gilead Sample Bank in vials to 10 mM in dimethyl sulfoxide (DMSO). In some cases, when compounds are not soluble in DMSO, they are made in 100% ethanol. Stocks are sonicated as necessary. The extracellular solution for screening Late INa is composed of: 140 mM NaCl, 4 mM KCl, 1.8 mM CaCl2, 1 mM MgCl2, 10 mM HEPES and 10 mM Dextrose with pH adjusted to 7.35 using NaOH. The intracellular solution contains: 105 mM CsF, 20 mM CsCl, 10NaF, 2 mM EGTA, 10 mM HEPES and 10 mM Dextrose with pH adjusted to 7.35 with CsOH. Compounds are diluted in extracellular solution using a MicroLab Nimbus (Hamilton Robotics, Reno, Nev.) to between 0.3 and 3 μM in glass vials and transferred to glass well plates before robotic addition to the cells. The 0 mM Na extracellular solution (0Na-ECF) used at the end of each experiment for the Late INa and Peak INa assays to measure baseline current contains: 140 Choline-Cl; 4 mM KCl, 1.8 mM CaCl2; 1 mM MgCl2; 10 mM HEPES and 10 mM Dextrose with pH was adjusted to 7.35 with CsOH.
For the Late INa assay, sodium channels are activated every 10 seconds (0.1 Hz) by depolarizing the cell membrane to −20 mV for 250 milliseconds (ms) from a holding potential of −120 mV.
Compounds were tested to determine their activity in blocking the late sodium current. Late INa was generated by adding 10 μM Tefluthrin (pyrethroid) to the extracellular solution. For the purposes of the screening, Late INa is defined as the mean current between […] during the voltage step to −20 mV. After establishing the whole cell recording configuration, Late INa activator is added to each well 4 times over a 15 minute period so that the late component of the Na current reaches a stable value. Compounds were then added (typically at 0.3 or 1 μM), in the presence of the Late Na^+ activator, with 3 additions over the course of 5 minutes. Measurements were made at the end of exposure to the third compound addition and values were normalized to the current level when all Na^+ was removed from the extracellular solution after two additions of 0Na-ECF.
Results are reported as percent block of late INa and results were analyzed by incorporating rundown correction for the Late INa.

Experiment [2] concerns the target T1, wild-type human cardiac sodium channel, hNav1.5. The experiment can be described thus: Peak INa screening assay (tonic block and use-dependent block). It is filed as cell-based. Here is the method:
as §1, §2, §3
Compounds were evaluated for their effect Nav1.5 Peak INa. It is contemplated that the compounds of Formula I avoid significant block of peak INa. Since the peak INa in the cells used herein can be very large, introducing artifacts in the recording, the concentration of Na^+ in the bath can be reduced to 40 mM by isosmotic replacement of Na^+ with Choline (see below).
Tonic Block (TB) of Peak INa was measured using a voltage step to −20 mV from a holding potential of −100 mV at a low stimulation frequency of 0.1 Hz. Use-Dependent Block (UDB) of Peak INa was measured during pulse number 50 of a pulse train (−20 mV, 20 ms, 50 pulses, 3 Hz) from a holding potential of −100 mV.
The extracellular solution for screening Peak INa is composed of: 40 mM NaCl, 100 mM Choline-Cl, 4 mM KCl, 1.8 mM CaCl2, 1 mM MgCl2 10 mM HEPES and 10 mM Dextrose with pH adjusted to 7.35 using NaOH. The intracellular solution used for the Peak INa assay is the same as outlined for the Late INa assay (see above).
After establishing the whole cell recording configuration, channels were stimulated to open with low frequency (0.1 Hz) so that the recording can be monitored and the extent to which the recording has stabilized can be assessed.
The test compound is then applied at 1 or 3 μM and was added 2 times at 60 second intervals. After the second compound addition, a 200 second wait period was imposed to allow for equilibration. Voltage protocols for TB and UDB are were performed in the absence and presence of compound and TB and UDB are calculated with respect to the compound free condition. Both TB and UDB were analyzed by incorporating rundown correction for the peak INa.

T1 sequence (Q14524 whole entry): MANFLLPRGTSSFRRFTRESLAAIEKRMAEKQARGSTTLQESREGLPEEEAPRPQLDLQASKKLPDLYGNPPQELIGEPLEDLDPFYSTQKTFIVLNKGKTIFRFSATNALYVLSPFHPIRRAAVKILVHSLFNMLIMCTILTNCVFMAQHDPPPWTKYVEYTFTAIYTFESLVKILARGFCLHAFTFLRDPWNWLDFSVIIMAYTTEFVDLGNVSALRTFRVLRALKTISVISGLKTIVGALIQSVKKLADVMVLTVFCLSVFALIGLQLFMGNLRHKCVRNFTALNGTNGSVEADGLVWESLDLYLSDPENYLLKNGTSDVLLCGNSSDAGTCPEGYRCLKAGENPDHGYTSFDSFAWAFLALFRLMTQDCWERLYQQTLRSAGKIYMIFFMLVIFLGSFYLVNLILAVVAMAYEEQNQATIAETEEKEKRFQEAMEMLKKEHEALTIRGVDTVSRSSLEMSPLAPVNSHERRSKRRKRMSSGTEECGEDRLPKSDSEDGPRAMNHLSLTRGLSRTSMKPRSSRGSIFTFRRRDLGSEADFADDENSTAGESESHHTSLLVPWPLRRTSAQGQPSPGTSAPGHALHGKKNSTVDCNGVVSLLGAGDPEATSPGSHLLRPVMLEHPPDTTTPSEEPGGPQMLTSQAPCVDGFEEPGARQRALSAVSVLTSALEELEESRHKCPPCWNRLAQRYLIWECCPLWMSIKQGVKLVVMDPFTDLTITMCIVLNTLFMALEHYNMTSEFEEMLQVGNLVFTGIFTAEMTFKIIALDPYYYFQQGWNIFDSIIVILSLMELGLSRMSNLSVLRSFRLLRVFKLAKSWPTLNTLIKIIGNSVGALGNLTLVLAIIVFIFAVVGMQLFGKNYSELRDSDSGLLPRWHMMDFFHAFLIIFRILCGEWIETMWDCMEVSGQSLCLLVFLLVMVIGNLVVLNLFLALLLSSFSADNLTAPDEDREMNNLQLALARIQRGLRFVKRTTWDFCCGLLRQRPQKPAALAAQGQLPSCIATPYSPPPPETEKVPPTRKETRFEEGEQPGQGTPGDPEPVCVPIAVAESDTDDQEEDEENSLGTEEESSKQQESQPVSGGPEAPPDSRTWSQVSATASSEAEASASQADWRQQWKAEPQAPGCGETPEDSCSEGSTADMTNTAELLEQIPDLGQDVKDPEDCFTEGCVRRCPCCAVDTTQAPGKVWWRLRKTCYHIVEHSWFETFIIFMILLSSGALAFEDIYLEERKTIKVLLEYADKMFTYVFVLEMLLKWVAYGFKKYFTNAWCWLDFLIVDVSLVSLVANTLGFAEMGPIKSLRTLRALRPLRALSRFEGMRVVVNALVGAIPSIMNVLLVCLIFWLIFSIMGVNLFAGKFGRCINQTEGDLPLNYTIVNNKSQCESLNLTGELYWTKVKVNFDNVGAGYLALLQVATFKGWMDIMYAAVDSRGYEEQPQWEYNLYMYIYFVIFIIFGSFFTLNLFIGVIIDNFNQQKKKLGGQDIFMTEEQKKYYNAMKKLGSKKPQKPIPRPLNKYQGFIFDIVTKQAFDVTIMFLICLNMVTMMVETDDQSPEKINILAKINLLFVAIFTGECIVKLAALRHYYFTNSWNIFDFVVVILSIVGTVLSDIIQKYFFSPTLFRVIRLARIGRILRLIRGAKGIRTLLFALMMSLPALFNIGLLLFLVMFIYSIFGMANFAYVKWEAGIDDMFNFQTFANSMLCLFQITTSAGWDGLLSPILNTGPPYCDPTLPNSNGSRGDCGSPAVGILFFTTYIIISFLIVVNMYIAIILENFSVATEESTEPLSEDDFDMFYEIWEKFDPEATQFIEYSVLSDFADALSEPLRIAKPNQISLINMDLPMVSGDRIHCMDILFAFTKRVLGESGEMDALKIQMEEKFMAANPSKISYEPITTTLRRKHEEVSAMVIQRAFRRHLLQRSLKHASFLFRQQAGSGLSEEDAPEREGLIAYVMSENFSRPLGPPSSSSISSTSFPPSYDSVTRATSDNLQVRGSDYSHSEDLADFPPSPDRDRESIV

In turn, `O=C1CC[C@@H](COc2noc3ccc(-c4ccc(OC(F)(F)F)cc4)cc23)N1` [Example 62, (S)-5-(((5-(4-(trifluoromethoxy)phenyl)benzo[d]isoxazol-3-yl)oxy)methyl)pyrrolidin-2-one] yielded an inhibition at 1 µM in experiment [1] of 28.4%.

`Cc1nccn1-c1noc2ccc(-c3ccc(OC(F)(F)F)cc3)cc12` [Example 138, 3-(2-methyl-1H-imidazol-1-yl)-5-(4-(trifluoromethoxy)phenyl)benzo[d]isoxazole]: the inhibition at 1 µM in experiment [1] is 29.8%.

Molecule `Cc1nc(COc2noc3ccc(-c4ccc(OC(F)(F)F)cc4)cc23)c(C)o1` [Example 52, 3-((2,5-dimethyloxazol-4-yl)methoxy)-5-(4-(trifluoromethoxy)phenyl)benzo[d]isoxazole] had an inhibition at 1 µM in experiment [1] of 24.3%.

With `FC(F)(F)Oc1ccc(-c2ccc3onc(OCc4nccc(C(F)(F)F)n4)c3c2)cc1` [Example 86, 5-(4-(trifluoromethoxy)phenyl)-3-((4-(trifluoromethyl)pyrimidin-2-yl)methoxy)benzo[d]isoxazole], in experiment [1], the inhibition at 1 µM was found to be 21.9%.

Regarding `FC(F)(F)Oc1ccc(-c2ccc3onc(OCc4cc5ccccc5cn4)c3c2)cc1` [Example 82, 3-(isoquinolin-3-ylmethoxy)-5-(4-(trifluoromethoxy)phenyl)benzo[d]isoxazole], in experiment [1], the inhibition at 1 µM came to 28.1%.

As to `N#CCC1(COc2noc3ccc(-c4ccc(OC(F)(F)F)cc4)cc23)CC1` [Example 54, 2-(1-(((5-(4-(trifluoromethoxy)phenyl)benzo[d]isoxazol-3-yl)oxy)methyl)cyclopropyl)acetonitrile], the inhibition at 1 µM in experiment [1] came out at 29.2%.

`Cc1cc(-c2cccc(OC(F)(F)F)c2)cc2c(OCc3ncccn3)noc12` [Example 19, 7-methyl-3-(pyrimidin-2-ylmethoxy)-5-(3-(trifluoromethoxy)phenyl)benzo[d]isoxazole] registered an inhibition at 1 µM in experiment [1] of 27.5%.

Regarding `c1cnc(COc2noc3ccc(-c4ccc(C5CC5)nc4)cc23)nc1` [Example 20, 5-(6-cyclopropylpyridin-3-yl)-3-(pyrimidin-2-ylmethoxy)benzo[d]isoxazole], the inhibition at 1 µM in experiment [1] worked out at 28.8%.

On to `Cc1cc(-c2cc3c(OCc4ncccn4)noc3cc2F)ccc1OC(F)(F)F` [Example 32, 6-fluoro-5-(3-methyl-4-(trifluoromethoxy)phenyl)-3-(pyrimidin-2-ylmethoxy)benzo[d]isoxazole], for which, in experiment [1], the inhibition at 1 µM came out at 28.8%.

The molecule `COc1cc2onc(OCc3ncccn3)c2cc1-c1ccc(OC(F)(F)F)cc1` [Example 11, 6-methoxy-3-(pyrimidin-2-ylmethoxy)-5-(4-(trifluoromethoxy)phenyl)benzo[d]isoxazole] registered an inhibition at 1 µM in experiment [1] of 30%.

In experiment [1], `FC(F)(F)Oc1ccc(-c2ccc3onc(OCc4c[nH]nn4)c3c2)cc1` [Example 83, 3-((1H-1,2,3-triazol-4-yl)methoxy)-5-(4-(trifluoromethoxy)phenyl)benzo[d]isoxazole] gave an inhibition at 1 µM of 23.7%.

With `Cn1cnc(COc2noc3ccc(-c4ccc(OC(F)(F)F)cc4)cc23)c1` [Example 43, 3-((1-methyl-1H-imidazol-4-yl)methoxy)-5-(4-(trifluoromethoxy)phenyl)benzo[d]isoxazole], the inhibition at 1 µM in experiment [1] turned out to be 27.1%.

The molecule `FC(F)(F)Oc1ccc(-c2ccc3onc(OCCc4ncc[nH]4)c3c2)cc1` [Example 66, 3-(2-(1H-imidazol-2-yl)ethoxy)-5-(4-(trifluoromethoxy)phenyl)benzo[d]isoxazole] displayed an inhibition at 1 µM in experiment [1] of 21.9%.

Molecule `COc1ccnc(COc2noc3c(C)cc(-c4ccc(OC(F)(F)F)cc4)cc23)n1` [Example 90, 3-((4-methoxypyrimidin-2-yl)methoxy)-7-methyl-5-(4-(trifluoromethoxy)phenyl)benzo[d]isoxazole] displayed an inhibition at 1 µM in experiment [1] of 20.9%.

`FC(F)(F)Oc1ccc(-c2ccc3onc(OCc4cnn(-c5ccccn5)c4)c3c2)cc1` [Example 65, 3-((1-(pyridin-2-yl)-1H-pyrazol-4-yl)methoxy)-5-(4-(trifluoromethoxy)phenyl)benzo[d]isoxazole] displayed an inhibition at 1 µM in experiment [1] of 27%.

`FC(F)(F)Oc1ccc(-c2ccc3onc(OCc4nccc(N5CCOCC5)n4)c3c2)cc1` [Example 70, 3-((4-morpholinopyrimidin-2-yl)methoxy)-5-(4-(trifluoromethoxy)phenyl)benzo[d]isoxazole] had an inhibition at 1 µM in experiment [1] of 25.5%.

In turn, `Cc1cc(C)n(CCOc2noc3ccc(-c4ccc(OC(F)(F)F)cc4)cc23)n1` [Example 69, 3-(2-(3,5-dimethyl-1H-pyrazol-1-yl)ethoxy)-5-(4-(trifluoromethoxy)phenyl)benzo[d]isoxazole] showed an inhibition at 1 µM in experiment [1] of 29.6%.

In experiment [1], `O=S1(=O)CCN(CCOc2noc3ccc(-c4ccc(OC(F)(F)F)cc4)cc23)CC1` [Example 85, 4-(2-((5-(4-(trifluoromethoxy)phenyl)benzo[d]isoxazol-3-yl)oxy)ethyl)thiomorpholine 1,1-dioxide] came in with an inhibition at 1 µM of 22.5%.

In experiment [1], `CC(C)Nc1noc2ccc(-c3ccc(OC(F)(F)F)cc3)cc12` [Example 131, N-isopropyl-5-(4-(trifluoromethoxy)phenyl)benzo[d]isoxazol-3-amine] registered an inhibition at 1 µM of 24.8%.

`Cc1cc(OC(F)(F)F)ccc1-c1cc2c(OCc3ncccn3)noc2cc1F` [Example 34, 6-fluoro-5-(2-methyl-4-(trifluoromethoxy)phenyl)-3-(pyrimidin-2-ylmethoxy)benzo[d]isoxazole] had an inhibition at 1 µM in experiment [1] of 21%.

Take `O=C1CC[C@H](CNc2noc3ccc(-c4ccc(OC(F)(F)F)cc4)cc23)N1` [Example 134, (R)-5-(((5-(4-(trifluoromethoxy)phenyl)benzo[d]isoxazol-3-yl)amino)methyl)pyrrolidin-2-one]: the inhibition at 1 µM in experiment [1] worked out at 21.1%.

In the case of `Fc1cc(OC(F)(F)F)ccc1-c1ccc2onc(OCc3ncccn3)c2c1` [Example 2, 5-(2-fluoro-4-(trifluoromethoxy)phenyl)-3-(pyrimidin-2-ylmethoxy)benzo[d]isoxazole], the inhibition at 3 µM stood at 66.1% in experiment [2] (tonic block of Peak INa, 0.1 Hz, holding -100 mV, read-out: Peak TB 3 uM) and 27.9% in experiment [2] (use-dependent block of Peak INa, 3 Hz, pulse 50, read-out: Peak UDB 3 Hz 3 uM). In experiment [1], this molecule came in with an inhibition at 1 µM of 54.6%.

As to `Fc1cc(-c2ccc(OC(F)(F)F)cc2)cc2c(OCCn3cncn3)noc12` [Example 84, 3-(2-(1H-1,2,4-triazol-1-yl)ethoxy)-7-fluoro-5-(4-(trifluoromethoxy)phenyl)benzo[d]isoxazole], the inhibition at 1 µM in experiment [1] is 23.6%.

`Cc1cccc(COc2noc3c(C)cc(-c4ccc(OC(F)(F)F)cc4)cc23)n1` [Example 106, 7-methyl-3-((6-methylpyridin-2-yl)methoxy)-5-(4-(trifluoromethoxy)phenyl)benzo[d]isoxazole] gave an inhibition at 1 µM in experiment [1] of 28.3%.
